In patent US6506766B1 (Abbott Laboratories, priority 1998, dated 2003):
Like-named read-outs stand apart in the source and are kept apart here.

Legend:
[1] = target: T1, human glucocorticoid receptor-α [GRX] isoform (Homo sapiens, UniProt P04150); assay: Radioligand binding with human glucocorticoid receptor cytosol ([3H]-dexamethasone competition)
T1 construct: host or cells: insect SF21 cells (baculovirus)
T1 sequence (P04150 1-777): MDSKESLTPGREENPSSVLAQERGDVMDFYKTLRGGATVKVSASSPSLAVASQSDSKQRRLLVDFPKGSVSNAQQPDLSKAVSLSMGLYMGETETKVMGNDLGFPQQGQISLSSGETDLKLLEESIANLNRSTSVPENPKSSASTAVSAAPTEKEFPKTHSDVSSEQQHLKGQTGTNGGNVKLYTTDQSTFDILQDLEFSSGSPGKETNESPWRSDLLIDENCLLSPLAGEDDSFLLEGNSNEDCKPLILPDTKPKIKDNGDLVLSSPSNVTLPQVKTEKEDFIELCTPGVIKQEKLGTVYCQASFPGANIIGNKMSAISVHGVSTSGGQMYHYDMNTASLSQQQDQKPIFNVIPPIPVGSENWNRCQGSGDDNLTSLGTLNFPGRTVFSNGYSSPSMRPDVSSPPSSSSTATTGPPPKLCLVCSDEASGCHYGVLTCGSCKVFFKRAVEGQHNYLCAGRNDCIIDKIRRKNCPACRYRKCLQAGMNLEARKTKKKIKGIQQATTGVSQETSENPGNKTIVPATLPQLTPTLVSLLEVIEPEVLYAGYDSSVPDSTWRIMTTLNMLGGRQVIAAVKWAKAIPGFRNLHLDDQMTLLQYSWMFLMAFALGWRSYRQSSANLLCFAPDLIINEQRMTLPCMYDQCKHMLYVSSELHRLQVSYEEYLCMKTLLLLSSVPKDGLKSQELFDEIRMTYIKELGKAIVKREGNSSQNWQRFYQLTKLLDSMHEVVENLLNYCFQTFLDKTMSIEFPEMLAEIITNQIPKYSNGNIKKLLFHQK

[2] = target: T2, human progesterone receptor-A [PRA] isoform (Homo sapiens, UniProt P06401); assay: Radioligand binding with human progesterone receptor cytosol ([3H]-progesterone competition)
T2 construct: host or cells: insect SF21 cells (baculovirus)
T2 sequence (P06401 1-769 isoform P06401-2): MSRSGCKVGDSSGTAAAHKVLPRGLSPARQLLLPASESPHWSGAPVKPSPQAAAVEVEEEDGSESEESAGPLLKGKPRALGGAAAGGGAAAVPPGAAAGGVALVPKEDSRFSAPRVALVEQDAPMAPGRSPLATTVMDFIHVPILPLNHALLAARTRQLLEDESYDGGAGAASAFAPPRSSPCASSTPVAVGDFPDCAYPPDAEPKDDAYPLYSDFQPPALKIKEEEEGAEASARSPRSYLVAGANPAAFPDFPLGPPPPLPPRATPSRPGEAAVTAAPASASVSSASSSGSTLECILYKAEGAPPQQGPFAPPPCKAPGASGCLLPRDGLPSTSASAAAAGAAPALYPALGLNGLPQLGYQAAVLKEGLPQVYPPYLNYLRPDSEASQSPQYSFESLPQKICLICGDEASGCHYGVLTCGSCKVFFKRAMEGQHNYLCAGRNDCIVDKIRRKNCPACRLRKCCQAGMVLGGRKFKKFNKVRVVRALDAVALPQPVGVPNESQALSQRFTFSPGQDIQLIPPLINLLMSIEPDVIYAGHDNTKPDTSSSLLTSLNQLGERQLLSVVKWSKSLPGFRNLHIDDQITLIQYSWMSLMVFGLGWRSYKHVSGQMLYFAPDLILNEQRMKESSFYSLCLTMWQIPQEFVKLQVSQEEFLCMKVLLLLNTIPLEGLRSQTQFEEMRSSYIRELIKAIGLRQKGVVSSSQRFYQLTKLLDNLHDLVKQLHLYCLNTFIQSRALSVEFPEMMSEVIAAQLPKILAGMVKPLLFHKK

[3] = GRX cytosol expressed in insect SF21 cells, [3H]-Dex ~0.9 nM, 4° C. overnight, Ki by Cheng-Prusoff, KL ~[…], read-out: Ki (nM) GR
[4] = PRA cytosol expressed in insect SF21 cells, [3H]Prog ~0.8 nM, 4° C. overnight, Ki by Cheng-Prusoff, KL ~4.5 nM, read-out: Ki (nM) PR

| Compound | Ki [1, 3] | Ki [2, 4] | Ki ([1]; Ki (nM) GR) | Ki ([2]; Ki (nM) PR) |
| --- | --- | --- | --- | --- |
| COc1cccc(C2Oc3cccc(OC)c3-c3ccc4c(c32)C(C)=CC(C)(C)N4)c1 (stereo not shown) [Example 85, 2,5-Dihydro-10-methoxy-5-(3-methoxyphenyl)-2,2,4-trimethyl-1H-[1]benzopyrano[3,4-f]quinoline] | 3.5 nM | ≥ 10000 nM | – | – |
| C=CCOc1cccc(C2Oc3cccc(OC)c3-c3ccc4c(c32)C(C)=CC(C)(C)N4)c1 (stereo not shown) [Example 86, 2,5-Dihydro-10-methoxy-2,2,4-trimethyl-5-[3-(2-propenyloxy)phenyl]-1H-[1]benzopyrano[3,4-f]quionline] | 2.1 nM | ≥ 10000 nM | – | – |
| COc1cccc2c1-c1ccc3c(c1C(c1cccc(OCc4ccccc4)c1)O2)C(C)=CC(C)(C)N3 (stereo not shown) [Example 87, 2,5-Dihydro-10-methoxy-2,2,4-trimethyl-5-[3-(phenylmethoxy)phenyl]-1H[1]benzopyrano[3,4-f]quinoline] | 4.7 nM | ≥ 10000 nM | – | – |
| COc1cccc2c1-c1ccc3c(c1C(c1cccc(OCC4CC4)c1)O2)C(C)=CC(C)(C)N3 (stereo not shown) [Example 88, 5-[3-(Cyclopropylmethoxy)phenyl]-2,5-dihydro-10-methoxy-2,2,4-trimethyl-1H-[1]benzopyrano[3,4-f]quinoline] | 6 nM | 15300 nM | – | – |
| COc1cccc2c1-c1ccc3c(c1C(c1cccc(OCCN4CCCCC4)c1)O2)C(C)=CC(C)(C)N3 (stereo not shown) [Example 89, 2,5-Dihydro-10-methoxy-2,2,4-trimethyl-5-[3-[2-(1-piperidinyl)ethoxy]pheny]-1H-[1]benzopyrano[3,4-f]quinoline] | 275 nM | ≥ 10000 nM | – | – |
| CCCCCCOc1cccc(C2Oc3cccc(OC)c3-c3ccc4c(c32)C(C)=CC(C)(C)N4)c1 (stereo not shown) [Example 90, 5-(3-Hexyloxyphenyl)-2,5-dihydro-10-methoxy-2,2,4-trimethyl-1H-[1]benzopyrano[3,4-f]quinoline] | 7.6 nM | ≥ 10000 nM | – | – |
| COc1cccc2c1-c1ccc3c(c1C(c1cccc(Oc4ccc([N+](=O)[O-])cc4[N+](=O)[O-])c1)O2)C(C)=CC(C)(C)N3 (stereo not shown) [Example 91, 5-[3-(2,4-Dinitrophenoxy)phenyl]-2,5-dihydro-10-methoxy-2,2,4-trimethyl-1H-[1]benzopyrano[3,4-f]quinoline] | 17 nM | ≥ 10000 nM | – | – |
| COc1cccc2c1-c1ccc3c(c1C(c1cccc(OS(=O)(=O)c4ccc(C)cc4)c1)O2)C(C)=CC(C)(C)N3 (stereo not shown) [Example 93, 3-(2,5-Dihydro-10-methoxy-2,2,4-trimethyl-1H-[1]benzopyrano[3,4-f]quinolin-5-yl)phenol 4-Methylbenzenesulfonate (Ester)] | 148 nM | ≥ 10000 nM | – | – |
| COc1cccc2c1-c1ccc3c(c1C(c1ccc(OC(C)=O)cc1)O2)C(C)=CC(C)(C)N3 (stereo not shown) [Example 94, 4-(2,5-Dihydro-10-methoxy-2,2,4-trimethyl-1H-[1]benzopyrano[3,4-f]quinolin5-yl)phenolacetate (Ester)] | 43 nM | ≥ 10000 nM | – | – |
| COc1cccc2c1-c1ccc3c(c1C(c1ccc(O)cc1)O2)C(C)=CC(C)(C)N3 (stereo not shown) [Example 95, 4-(2,5-Dihydro-10-methoxy-2,2,4-trimethyl-1H-[1]benzopyrano[3,4-f]quinolin-5-yl)phenol] | 31 nM | ≥ 10000 nM | – | – |
| COc1cccc2c1-c1ccc3c(c1C(c1ccc(OCSC)cc1)O2)C(C)=CC(C)(C)N3 (stereo not shown) [Example 96, 2,5-Dihydro-10-methoxy-2,2,4-trimethyl-5-[[4-(methylthio)methoxy]phenyl]-1H-[1]benzopyrano[3,4-f]quinoline] | 10 nM | 9160 nM | – | – |
| COc1cccc2c1-c1ccc3c(c1C(c1ccc(OC(=O)N(C)C)cc1)O2)C(C)=CC(C)(C)N3 (stereo not shown) [Example 97, [4-(2,5-Dihydro-10-methoxy-2,2,4-trimethyl-1H-1benzopyrano[3,4-f]quinolin-5-yl)phenyl]dimethylcarbamate] | – | – | 320 nM | ≥ 10000 nM |
| COc1cccc2c1-c1ccc3c(c1C(c1ccc(OCc4ccccc4)cc1)O2)C(C)=CC(C)(C)N3 (stereo not shown) [Example 98, 2,5-Dihydro-10-methoxy-2,2,4-trimethyl-5-[4-(phenylmethoxy)phenyl]-1H-[1]benzopyranol[3,4-f]quinoline] | 9.8 nM | ≥ 10000 nM | – | – |

The next lines start with results.

| Ki [1, 3] | Ki [2, 4] | Compound | Ki ([1]; Ki (nM) GR) | Ki ([2]; Ki (nM) PR) |
| --- | --- | --- | --- | --- |
| 3.6 nM | ≥ 10000 nM | COCOc1cccc(C2Oc3cccc(OC)c3-c3ccc4c(c32)C(C)=CC(C)(C)N4)c1 (stereo not shown) [Example 99] | – | – |
| 7.8 nM | ≥ 10000 nM | COc1cccc2c1-c1ccc3c(c1C(c1cccc(OC(=O)N4CCOCC4)c1)O2)C(C)=CC(C)(C)N3 (stereo not shown) [Example 100, [(2,5-Dihydro-10-methoxy-2,2,4-trimethyl-1H-[1]benzopyrano[3,4-f]quinolin-5-yl)phenyl]1-morpholinecarboxylate] | – | – |
| 11.4 nM | ≥ 10000 nM | COc1cccc2c1-c1ccc3c(c1C(c1cccc(OC[S+](C)[O-])c1)O2)C(C)=CC(C)(C)N3 (stereo not shown) [Example 101, 2,5-Dihydro-10-methoxy-2,2,4-trimethyl-5-[3-[(methylsulfinyl)methoxy]phenyl]-1H-[1]benzopyrano[3,4-f]quionline] | – | – |
| 5.2 nM | ≥ 10000 nM | COc1cccc2c1-c1ccc3c(c1C(c1cccc(SC)c1)O2)C(C)=CC(C)(C)N3 (stereo not shown) [Example 103] | – | – |
| 8.9 nM | ≥ 10000 nM | COC(=S)Oc1cccc(C2Oc3cccc(OC)c3-c3ccc4c(c32)C(C)=CC(C)(C)N4)c1 (stereo not shown) [Example 104, O-[3-(2,5-Dihydro-10-methoxy-2,2,4-trimethyl-1H-[1]benzopyrano[3,4-f]quinolin-5-yl)phenyl]methylcarbonothioate] | – | – |
| 9 nM | > 10000 nM | COc1cccc2c1-c1ccc3c(c1C(c1cccc(OS(=O)(=O)C(F)(F)F)c1)O2)C(C)=CC(C)(C)N3 (stereo not shown) [Example 105] | – | – |
| 62 nM | > 10000 nM | COc1cccc2c1-c1ccc3c(c1C(c1cccc(C4=NC(C)(C)CO4)c1)O2)C(C)=CC(C)(C)N3 (stereo not shown) [Example 106] | – | – |
| 215 nM | > 10000 nM | CCOC(=O)c1cccc(C2Oc3cccc(OC)c3-c3ccc4c(c32)C(C)=CC(C)(C)N4)c1 (stereo not shown) [Example 107] | – | – |
| 638 nM | > 10000 nM | COc1cccc2c1-c1ccc3c(c1C(c1cccc(C(=O)O)c1)O2)C(C)=CC(C)(C)N3 (stereo not shown) [Example 108, 3-(2,5-Dihydro-10-methoxy-2,2,4-trimethyl-1H-[1]benzopyrano[3,4-f]quinolin-5-yl)benzoic Acid] | – | – |
| 6.1 nM | ≥ 10000 nM | C=CCc1cc(C)cc(C2Oc3cccc(OC)c3-c3ccc4c(c32)C(C)=CC(C)(C)N4)c1 (stereo not shown) [Example 109, 2,5-Dihydro-10-methoxy-2,2,4-trimethyl-5-[3-methyl-5-(2-propenyl)phenyl]-1H-[1]benzopyrano[3,4-f]quinoline] | – | – |
| 5.6 nM | ≥ 10000 nM | COc1cccc2c1-c1ccc3c(c1C(c1cc(C)cc(C(C)=O)c1)O2)C(C)=CC(C)(C)N3 (stereo not shown) [Example 110, 1-[3-(2,5-Dihydro-10-methoxy-2,2,4-trimethyl-1H-[1]benzopyrano[3,4-f]quinolin-5-yl)-5-methylphenyl]ethanone] | – | – |
| 7.2 nM | ≥ 10000 nM | COc1cccc2c1-c1ccc3c(c1C(c1cc(C)cc(C(C)(C)O)c1)O2)C(C)=CC(C)(C)N3 (stereo not shown) [Example 111, 3-(2,5-Dihydro-10-methoxy-2,2,4-trimethyl-1H-[1benzopyrano3,4-f]quinolin-5-yl)5-trimethylbenzenemethanol] | – | – |
| 31 nM | ≥ 10000 nM | COc1cccc2c1-c1ccc3c(c1C(c1cccc(-c4ccco4)c1)O2)C(C)=CC(C)(C)N3 (stereo not shown) [Example 112, 5-[3-(2-Furanyl)phenyl]-2,5-dihydro-10-methoxy-2,2,4-trimethyl-1H-[1]benzopyrano[3,4-f]quinoline] | – | – |
